# How the values were obtained:
# Type in all cases: functional
# [1] = test system: NCI-H23; assay: Cytotoxicity against human NCI-H23 cells assessed as cell growth at 10^-4 M after 48 hrs by SRB assay relative to control; details: NCI-H23, 48 h, read-out: Activity
# [2] = test system: HT-29; assay: Cytotoxicity against human HT-29 cells assessed as cell growth at 10^-4 M after 48 hrs by SRB assay relative to control; details: HT-29, 48 h, read-out: Activity
# [3] = test system: KM12; assay: Cytotoxicity against human KM12 cells assessed as cell growth at 10^-4 M after 48 hrs by SRB assay relative to control; details: KM12, 48 h, read-out: Activity
# [4] = Cytotoxicity against human UACC62 cells after 48 hrs by SRB assay; details: UACC-62, 48 h
# [5] = Cytotoxicity against human OVCAR8 cells after 48 hrs by SRB assay; details: OVCAR-8, 48 h; for CC50: read-out: LC50 (the source's name)
# [6] = test system: 786-0; assay: Cytotoxicity against human 786-0 cells after 48 hrs by SRB assay; details: 786-0, 48 h
# [7] = test system: LOX IMVI; assay: Cytotoxicity against human LOXIMVI cells assessed as cell growth at 10^-4 M after 48 hrs by SRB assay relative to control; details: read-out: Activity
# [8] = test system: MDA-MB-435; assay: Cytotoxicity against human MDA-MB-435 cells assessed as cell growth at 10^-4 M after 48 hrs by SRB assay relative to control; details: MDA-MB-435, 48 h, read-out: Activity
# [9] = test system: K562; assay: Cytotoxicity against human K562 cells assessed as cell growth at 10^-8 M after 48 hrs by SRB assay relative to control; details: K562, 48 h, read-out: Activity
# [10] = test system: SF-295; assay: Cytotoxicity against human SF295 cells assessed as cell growth at 10^-8 M after 48 hrs by SRB assay relative to control; details: SF-295, 48 h, read-out: Activity
# [11] = test system: U-251; assay: Cytotoxicity against human U251 cells assessed as cell growth at 10^-8 M after 48 hrs by SRB assay relative to control; details: U-251, 48 h, read-out: Activity
# [12] = Cytotoxicity against human OVCAR5 cells assessed as cell growth at 10^-4 M after 48 hrs by SRB assay relative to control; details: OVCAR-5, 48 h, read-out: Activity
# [13] = test system: 786-0; assay: Cytotoxicity against human 786-0 cells assessed as cell growth at 10^-4 M after 48 hrs by SRB assay relative to control; details: 786-0, 48 h, read-out: Activity
# [14] = test system: ACHN; assay: Cytotoxicity against human ACHN cells assessed as cell growth at 10^-4 M after 48 hrs by SRB assay relative to control; details: read-out: Activity
# [15] = test system: SN12C; assay: Cytotoxicity against human SN12C cells assessed as cell growth at 10^-4 M after 48 hrs by SRB assay relative to control; details: read-out: Activity
# [16] = Cytotoxicity against human UO31 cells assessed as cell growth at 10^-4 M after 48 hrs by SRB assay relative to control; details: UO-31, 48 h, read-out: Activity
# [17] = Cytotoxicity against human Hs 578T cells assessed as cell growth at 10^-4 M after 48 hrs by SRB assay relative to control; details: read-out: Activity
# [18] = test system: SK-MEL-5; assay: Cytotoxicity against human SK-MEL-5 cells assessed as cell growth at 10^-8 M after 48 hrs by SRB assay relative to control; details: SK-MEL-5, 48 h, read-out: Activity
# [19] = Cytotoxicity against human OVCAR5 cells assessed as cell growth at 10^-8 M after 48 hrs by SRB assay relative to control; details: OVCAR-5, 48 h, read-out: Activity
# [20] = test system: HOP-62; assay: Cytotoxicity against human HOP62 cells assessed as cell growth at 10^-7 M after 48 hrs by SRB assay relative to control; details: HOP-62, 48 h, read-out: Activity
# [21] = test system: SW-620; assay: Cytotoxicity against human SW620 cells assessed as cell growth at 10^-7 M after 48 hrs by SRB assay relative to control; details: SW-620, 48 h, read-out: Activity
# [22] = test system: SF-295; assay: Cytotoxicity against human SF295 cells assessed as cell growth at 10^-7 M after 48 hrs by SRB assay relative to control; details: SF-295, 48 h, read-out: Activity
# [23] = test system: SNB-19; assay: Cytotoxicity against human SNB19 cells assessed as cell growth at 10^-7 M after 48 hrs by SRB assay relative to control; details: SNB-19, 48 h, read-out: Activity
# [24] = test system: U-251; assay: Cytotoxicity against human U251 cells assessed as cell growth at 10^-7 M after 48 hrs by SRB assay relative to control; details: U-251, 48 h, read-out: Activity
# [25] = test system: K562; assay: Cytotoxicity against human K562 cells after 48 hrs by SRB assay; details: K562, 48 h; for CC50: read-out: LC50 (the source's name)
# [26] = test system: NCI-H23; assay: Cytotoxicity against human NCI-H23 cells after 48 hrs by SRB assay; details: NCI-H23, 48 h
# [27] = Cytotoxicity against human HCT15 cells after 48 hrs by SRB assay; details: HCT-15, 48 h; for CC50: read-out: LC50 (the source's name)
# [28] = test system: HT-29; assay: Cytotoxicity against human HT-29 cells after 48 hrs by SRB assay; details: HT-29, 48 h; for CC50: read-out: LC50 (the source's name)
# [29] = Cytotoxicity against human OVCAR4 cells assessed as cell growth at 10^-7 M after 48 hrs by SRB assay relative to control; details: OVCAR-4, 48 h, read-out: Activity
# [30] = Cytotoxicity against human OVCAR8 cells assessed as cell growth at 10^-7 M after 48 hrs by SRB assay relative to control; details: OVCAR-8, 48 h, read-out: Activity
# [31] = test system: MDA-MB-231; assay: Cytotoxicity against human MDA-MB-231 cells assessed as cell growth at 10^-7 M after 48 hrs by SRB assay relative to control; details: MDA-MB-231, 48 h, read-out: Activity
# [32] = test system: HOP-62; assay: Cytotoxicity against human HOP62 cells assessed as cell growth at 10^-6 M after 48 hrs by SRB assay relative to control; details: HOP-62, 48 h, read-out: Activity
# [33] = test system: A498; assay: Cytotoxicity against human A498 cells assessed as cell growth at 10^-6 M after 48 hrs by SRB assay relative to control; details: A498, 48 h, read-out: Activity
# [34] = test system: ACHN; assay: Cytotoxicity against human ACHN cells assessed as cell growth at 10^-6 M after 48 hrs by SRB assay relative to control; details: read-out: Activity
# [35] = Cytotoxicity against human UO31 cells assessed as cell growth at 10^-6 M after 48 hrs by SRB assay relative to control; details: UO-31, 48 h, read-out: Activity
# [36] = test system: MDA-MB-231; assay: Cytotoxicity against human MDA-MB-231 cells assessed as cell growth at 10^-6 M after 48 hrs by SRB assay relative to control; details: MDA-MB-231, 48 h, read-out: Activity
# [37] = Cytotoxicity against human Hs 578T cells assessed as cell growth at 10^-6 M after 48 hrs by SRB assay relative to control; details: read-out: Activity
smiles,measurement,setting,value
CC(C)=CCC[C@H](C)c1ccc(C)c(CNCC2CCNCC2)c1O,growth at 100 µM,[1],54%
same,growth at 100 µM,[2],-66%
same,growth at 100 µM,[3],-77%
same,GI50,[4],4.24 µM
same,LC50 (concentration killing 50% of cells),[4],16.4 µM
same,TGI,[4],8.32 µM
same,GI50,[5],4.35 µM
same,TGI,[5],9.66 µM
same,CC50,[5],21.5 µM
same,GI50,[6],5.01 µM
same,LC50,[6],> 25 µM
same,TGI,[6],11.5 µM
same,growth at 100 µM,[7],-79%
same,growth at 100 µM,[8],-66%
same,growth at 0.01 µM,[9],103%
same,growth at 0.01 µM,[10],96%
same,growth at 0.01 µM,[11],96%
same,growth at 100 µM,[12],27%
same,growth at 100 µM,[13],-47%
same,growth at 100 µM,[14],-34%
same,growth at 100 µM,[15],39%
same,growth at 100 µM,[16],-29%
same,growth at 100 µM,[17],23%
same,growth at 0.01 µM,[18],93%
same,growth at 0.01 µM,[19],96%
same,growth at 0.1 µM,[20],95%
same,growth at 0.1 µM,[21],95%
same,growth at 0.1 µM,[22],91%
same,growth at 0.1 µM,[23],91%
same,growth at 0.1 µM,[24],93%
same,GI50,[25],1.01 µM
same,TGI,[25],4.86 µM
same,CC50,[25],19.9 µM
same,GI50,[26],> 25 µM
same,LC50,[26],> 25 µM
same,TGI,[26],> 25 µM
same,GI50,[27],5.19 µM
same,TGI,[27],18.6 µM
same,CC50,[27],> 25 µM
same,GI50,[28],4.51 µM
same,TGI,[28],9.45 µM
same,CC50,[28],19.8 µM
same,growth at 0.1 µM,[29],103%
same,growth at 0.1 µM,[30],104%
same,growth at 0.1 µM,[31],101%
same,growth at 1 µM,[32],97%
same,growth at 1 µM,[33],79%
same,growth at 1 µM,[34],92%
same,growth at 1 µM,[35],84%
same,growth at 1 µM,[36],104%
same,growth at 1 µM,[37],97%
COc1ccc(CCN2COc3c([C@@H](C)CCC=C(C)C)ccc(C)c3C2)cc1OC,growth at 100 µM,[1],-92%
same,growth at 100 µM,[2],-89%
same,growth at 100 µM,[3],-75%
same,GI50,[4],3.48 µM
same,LC50 (concentration killing 50% of cells),[4],38.7 µM
same,TGI,[4],14.6 µM
same,GI50,[5],4.21 µM
same,TGI,[5],20.2 µM
same,CC50,[5],89.5 µM
same,LC50,[6],8.72 µM
same,growth at 100 µM,[7],-93%
same,growth at 100 µM,[8],-78%
same,growth at 0.01 µM,[9],102%
same,growth at 0.01 µM,[10],81%
same,growth at 0.01 µM,[11],92%
same,growth at 100 µM,[12],-100%
same,growth at 100 µM,[13],-100%
same,growth at 100 µM,[14],-92%
same,growth at 100 µM,[15],-100%
same,growth at 100 µM,[16],-96%
same,growth at 100 µM,[17],-66%
same,growth at 0.01 µM,[18],96%
same,growth at 0.01 µM,[19],92%
same,growth at 0.1 µM,[20],96%
same,growth at 0.1 µM,[21],93%
same,growth at 0.1 µM,[22],92%
same,growth at 0.1 µM,[23],96%
same,growth at 0.1 µM,[24],88%
same,GI50,[25],3.7 µM
same,TGI,[25],93.5 µM
same,CC50,[25],> 100 µM
same,GI50,[26],2.55 µM
same,LC50,[26],21.8 µM
same,TGI,[26],6.08 µM
same,GI50,[27],2.84 µM
same,TGI,[27],10.4 µM
same,CC50,[27],38.2 µM
same,GI50,[28],2.2 µM
same,TGI,[28],5.73 µM
same,CC50,[28],22.4 µM
same,growth at 0.1 µM,[29],90%
same,growth at 0.1 µM,[30],95%
same,growth at 0.1 µM,[31],82%
same,growth at 1 µM,[32],97%
same,growth at 1 µM,[33],68%
same,growth at 1 µM,[34],85%
same,growth at 1 µM,[35],76%
same,growth at 1 µM,[36],91%
same,growth at 1 µM,[37],93%
CC(C)=CCC[C@H](C)c1ccc(C)c2c1OCN(CC1CCNCC1)C2,growth at 100 µM,[1],-71%
same,growth at 100 µM,[2],-66%
same,growth at 100 µM,[3],-90%
same,GI50,[4],15.5 µM
same,LC50 (concentration killing 50% of cells),[4],57.6 µM
same,TGI,[4],29.9 µM
same,GI50,[5],18.4 µM
same,TGI,[5],34.5 µM
same,CC50,[5],64.6 µM
same,GI50,[6],12.1 µM
same,LC50,[6],56.9 µM
same,TGI,[6],26.3 µM
same,growth at 100 µM,[7],-80%
same,growth at 100 µM,[8],-83%
same,growth at 0.01 µM,[9],97%
same,growth at 0.01 µM,[10],92%
same,growth at 0.01 µM,[11],99%
same,growth at 100 µM,[12],-90%
same,growth at 100 µM,[13],-87%
same,growth at 100 µM,[14],-89%
same,growth at 100 µM,[15],-88%
same,growth at 100 µM,[16],-86%
same,growth at 100 µM,[17],-75%
same,growth at 0.01 µM,[18],99%
same,growth at 0.01 µM,[19],88%
same,growth at 0.1 µM,[20],94%
same,growth at 0.1 µM,[21],100%
same,growth at 0.1 µM,[22],94%
same,growth at 0.1 µM,[23],95%
same,growth at 0.1 µM,[24],101%
same,GI50,[25],2.68 µM
same,TGI,[25],8.44 µM
same,CC50,[25],97.7 µM
same,GI50,[26],15.7 µM
same,LC50,[26],72 µM
same,TGI,[26],33.6 µM
same,GI50,[27],6.51 µM
same,TGI,[27],21.1 µM
same,CC50,[27],54 µM
same,GI50,[28],3 µM
same,TGI,[28],8.38 µM
same,CC50,[28],53 µM
same,growth at 0.1 µM,[29],102%
same,growth at 0.1 µM,[30],101%
same,growth at 0.1 µM,[31],101%
same,growth at 1 µM,[32],90%
same,growth at 1 µM,[33],102%
same,growth at 1 µM,[34],106%
same,growth at 1 µM,[35],91%
same,growth at 1 µM,[36],99%
same,growth at 1 µM,[37],104%

# From ChEMBL document CHEMBL3390836, “Mannich- and LedererManasse-based analogues of the natural product S-(+)-curcuphenol as cancer proliferation and migration inhibitors” (Medchemcomm, 2012)
